Each block holds one compound with its values, some of them ahead of it.
Columns and labels:
live tumor fragment = assay: Diffusion of a small molecule drug and an antibody into a live tumor fragment (fluorescence imaging); assay type: in vitro ADME; settings: live tumor fragment cultured at 37° C., time after addition
Procedure: Notable was gradual appearance of doxorubicin-characteristic fluorescence first in the periphery of tissue fragment at 15 minutes followed by full-thickness staining of the entire fragment area at 2 hours. […] Notable is plateau staining within about 5 h. As noted by this experiment, both small molecule drugs and large antibodies diffused into the live tissue fragments.

EMT6 tumor fragments [1] = assay: NAD(P)H intensity multiphoton microscopy versus propidium iodide viability ground truth in cultured tumor fragments; assay type: cell-based, mouse; settings: after 24 h, treated versus untreated
Procedure: Live EMT6 tumors were cut into tissue fragments that were then sorted and cultured in glass-bottomed multi-well plates. To induce cancer cell death, one group was treated with the multi-kinase inhibitor, staurosporine (STS), and the control group was untreated. After 24 h, the structure and metabolic status of tumor fragments were imaged based on the intrinsically fluorescent metabolic co-factor nicotinamide dinucleotides (NAD(P)H) fluorescence intensity using multiphoton microscopy with 720 nm excitation. […] For structural reference, the second harmonic generation was also imaged (blue).

EMT6 tumor fragments [2] = assay: Label-free MP-FLIM of NAD(P)H fluorescence lifetime in cultured tumor fragments; assay type: cell-based, mouse; settings: 24 hours of exposure vs 0 h, p<0.002
Procedure: Live EMT6 tumors were cut into tissue fragments that were then sorted and cultured in glass-bottomed multi-well plates. To induce cancer cell death, one group was treated with the multi-kinase inhibitor, staurosporine (STS), and the control group was treated with the vehicle (Veh). Before (0 h) and after treatment (24 h), the structure and metabolic status of tumor fragments were imaged based on the intrinsically fluorescent metabolic co-factor nicotinamide dinucleotides (NAD(P)H) fluorescence intensity and lifetime using MP-FLIM by time-correlated single photon counting. The data was analyzed by fitting fluorescence decay curves with dual exponents. […] Each dot represents one fragment.

CT26 tumor fragments = assay: Supernatant cytokines of live tumor fragments by LEGENDPlex bead immunoassay, mouse; assay type: cell-based; settings: mouse specimens, cultured 48 or 72 h
Procedure: (§1) Human tumor excisions were obtained from the University of Wisconsin (Institutional Review Board (IRB) approved) and CT26 tumors were grown in mice. Tumor excisions were cut into […] live tumor fragments of 100-300 μm thickness, sorted into multi-well plates, and cultured for 48 or 72 h in the presence or absence of anti-PD1 (nivolumab or mouse equivalent), anti-PD1 plus anti-CTLA4 (ipilimumab or mouse equivalent), or concanavalin A (ConA) as a positive control. Cell viability was ascertained by ATP luminescence assay or flow cytometry (not shown). Supernatant cytokines were measured using LEGENDPlex bead immunoassay. […] The presence of cytokines was greater in wells with 10 fragments than in wells with 3 fragments, indicating suitability of culture conditions.

[3] = tested on: human live tumor fragments; assay: Supernatant cytokines of live tumor fragments by LEGENDPlex bead immunoassay, human; assay type: cell-based; settings: cultured 48 or 72 h; for presence of IFN-γ and cytokines associated with immune activation relative to the untreated control: human samples
Procedure: as §1

appearance of doxorubicin-characteristic fluorescence in the periphery of tissue fragment (live tumor fragment): 15 min
full-thickness staining of the entire fragment area (live tumor fragment): 2 h
Compound: COc1cccc2c1C(=O)c1c(O)c3c(c(O)c1C2=O)C[C@@](O)(C(=O)CO)C[C@@H]3O[C@H]1C[C@H](N)[C@H](O)[C@H](C)O1 [doxorubicin]

Compound: CN[C@@H]1C[C@H]2O[C@@](C)([C@@H]1OC)n1c3ccccc3c3c4c(c5c6ccccc6n2c5c31)C(=O)NC4 [staurosporine]
PI-stained nuclei (dead cells) (EMT6 tumor fragments [1]): increased numbers of PI-stained nuclei
NAD(P)H intensity (EMT6 tumor fragments [1]; 720 nm excitation): loss of NAD(P)H intensity
NAD(P)H short lifetime component (a1) (EMT6 tumor fragments [2]): concomitant decrease
whole fragment NAD(P)H mean lifetime (tm) (EMT6 tumor fragments [2]): statistically significant increase

Compound: anti-PD1: immunotherapy drug anti-PD1 (nivolumab or mouse equivalent)
presence of IFN-γ and cytokines associated with immune activation, fold increase in relation to the untreated control (CT26 tumor fragments): greater presence of IFN-γ and 10 cytokines
cytokine panel upregulation, fold increase relative to untreated control ([3]; human LTFs): cytokine panel upregulation was observed
presence of IFN-γ and cytokines associated with immune activation relative to the untreated control [3]: greater presence of IFN-γ and 16 cytokines

Compound: concanavalin A [ConA]
presence of IFN-γ and cytokines associated with immune activation relative to the untreated control [3]: greater presence of IFN-γ and 16 cytokines

— patent publication US11366101B1, “Ex vivo systems and methods for determining the effect of a drug or other agent on a tissue” (Elephas Biosciences Corporation, priority 2020, dated 2022)
